Assay results published in ChEMBL document CHEMBL1159014, “Isolation of potential cancer chemopreventive agents from Eriodictyon californicum” (1992).

Assays:
[1] = Chemopreventive activity in Syrian hamster embryo cells assessed as inhibition of metabolism of [3H]benzo(a)pyrene to water-soluble metabolites after 24 hrs at 5 ug/ml relative to control; type: functional; conditions: Mesocricetus auratus, read-out: INH
[2] = Chemopreventive activity in Syrian hamster embryo cells assessed as inhibition of metabolism of [3H]benzo(a)pyrene to water-soluble metabolites after 24 hrs at 20 ug/ml relative to control; type: functional; conditions: Mesocricetus auratus, read-out: INH
[3] = Chemopreventive activity in Syrian hamster embryo cells assessed as inhibition of metabolism of [3H]benzo(a)pyrene to water-soluble metabolites after 24 hrs at 10 ug/ml relative to control; type: functional; conditions: Mesocricetus auratus, read-out: INH
[4] = Chemopreventive activity in Syrian hamster embryo cells assessed as pmol of (+)-anti-benzo(a)pyrene-7,8-diol-9,10-epoxide -dGuo adduct per mg of DNA at 10 ug/ml by [35S]phosphorothote post-labeling-HPLC; type: functional, Mesocricetus auratus
[5] = Chemopreventive activity in Syrian hamster embryo cells assessed as pmol of [3H]benzo(a)pyrene binding per mg of DNA at 10 ug/ml by [35S]phosphorothote post-labeling-HPLC; type: functional, Mesocricetus auratus
[6] = species on record: Mesocricetus auratus; test: Chemopreventive activity in Syrian hamster embryo cells assessed as inhibition of [3H]benzo(a)pyrene-DNA binding at 10 ug/ml by [35S]phosphorothote post-labeling-HPLC; type: functional

Row | SMILES | inhibition at 5 µg/mL [1] | inhibition at 20 µg/mL [2] | inhibition at 10 µg/mL [3] | Activity [4] | Activity [5] | inhibition [6]
1 | COc1c(O)cc2oc(-c3ccc(O)cc3)cc(=O)c2c1O [HISPIDULIN] | 18% | 92% | 75% |  |  | 
2 | O=C1C[C@@H](c2ccccc2)Oc2cc(O)cc(O)c21 [PINOCEMBRIN] | 8% | 66% | 29% |  |  | 
3 | COc1cc(C2CC(=O)c3c(cc(O)c(OC)c3O)O2)ccc1O (stereo unspecified) | 9% | 32% | 19% |  |  | 
4 | O=c1cc(-c2ccccc2)oc2cc(O)cc(O)c12 [CHRYSIN] | 14% | 86% | 44% |  |  | 
5 | COc1cc2c(c(O)c1OC)C(=O)CC(c1ccc(O)cc1)O2 (stereo unspecified) |  | 36% |  |  |  | 
6 | COc1cc2oc(-c3ccc(O)cc3)cc(=O)c2c(O)c1OC [CIRSIMARITIN] | 69% | 92% | 85% | 11.5 pmol | 19.4 pmol | 71%
7 | O=C1C[C@@H](c2ccc(O)c(O)c2)Oc2cc(O)cc(O)c21 [ERIODICTYOL] | 16% | 55% | 40% |  |  | 
8 | COc1cc(O)c2c(c1)O[C@H](c1ccc(O)cc1)CC2=O [SAKURANETIN] |  | 52% |  |  |  | 
9 | COc1cc([C@@H]2CC(=O)c3c(O)cc(O)cc3O2)ccc1OC(=O)C(C)C |  | 52% |  |  |  | 
10 | COc1cc(-c2cc(=O)c3c(O)cc(O)cc3o2)ccc1O [CHRYSOERIOL] | 60% | 96% | 85% | 22.5 pmol | 44.9 pmol | 32%
11 | COc1cc([C@@H]2CC(=O)c3c(O)cc(O)cc3O2)ccc1O [HOMOERIODICTYOL] |  | 36% |  |  |  | 
